Laboratory results taken from PubChem BioAssay AID2252 (Southern Research Specialized Biocontainment Screening …, 2010).
“And” between values parts separate entries of the source, which are not always exact repeats. Equal values may be shown once.

system: THP-1 viability, CellTiter-Glo luminescence, 72 h; test: PubChem AID 2252

Structure (SMILES) | EC50
Cc1cc(C)n(-c2nc(NCCN(C)C)c3c4c(sc3n2)CCCC4)n1 | 4.39 µM
COc1cc(/C=N/NC(=O)c2cncc(Br)c2)cc([N+](=O)[O-])c1O | 38.1 µM
CC1(C)CC(N2CCN(c3ccccc3)CC2)=CC(=[N+]2CCCC2)C1 | 8.86 µM
O=C(CCN1CCOCC1)N/N=C/c1cc(Br)cc(Br)c1O | 24.8 µM
CCn1nccc1C(=O)Nc1cc(Cl)cc(Cl)c1 | 37 µM
c1ccc(CN2CCN(c3nc(NCc4ccco4)c4ccccc4n3)CC2)cc1 | 15.3 µM
Cc1cc(=O)oc2ccc(OCC(=O)N3CCC(C)CC3)cc12 | < 0.1 µM
CCCCCCCSc1cc(OC)c(CCNC)cc1OC | 10.2 µM
CCc1cccc2c1Sc1ccccc1CC2N1CCNCC1 (stereo unspecified) | 9.72 µM
CCn1nnc(NC(=O)c2ccc([N+](=O)[O-])o2)n1 | 13.6 µM
C#CCOCCOCCOCCNc1nc(N2CCN(C(=O)CCCCCCCCCCNC(=O)Cn3cc(CCCCCN)nn3)CC2)nc(N2CCN(C(=O)CCCCCCCCCCNC(=O)[C@H]([C@@H](C)CC)n3cc(CCCCCN)nn3)CC2)n1 | 14.5 µM
Cc1ccc(Cn2c(=N)c(C(=O)NCc3ccco3)cc3c(=O)n4ccccc4nc32)cc1 | 42.6 µM
O=[N+]([O-])c1ccc(/C=N/NC(=S)Nc2ccc(Cl)cc2Cl)s1 | 47.5 µM
O=C(Nc1cccc(Cl)c1)Nc1nccs1 | 33.8 µM
COc1ccc(/C=N/NC(=O)c2ccc3c(c2)OCO3)cc1 | 48.7 µM
N=c1c2c(n(Cc3cccc(Cl)c3)c3c1CCC3)CCCC2 | 13.5 µM
N#C/C(=N\Nc1ccc([N+](=O)[O-])cc1)C(N)=S | 29 µM
O=C(Nc1ccc(Cl)cc1)Nc1ccc2c(c1)N1CCN=C1S2 | 13.9 µM
O=c1cc(-c2ccccc2)cc(-c2ccccc2)n1O | 14 µM
Cc1ccc(C[n+]2c(-c3ccc(C)cc3)cc(-c3ccc(C)cc3)cc2-c2ccc(C)cc2)cc1 | 0.22 µM
CCc1nnc(NS(=O)(=O)c2ccc(N=Cc3c(C)[nH]n(-c4ccc(C)cc4)c3=O)cc2)s1 | 29.3 µM
CC(Nc1nc(N2CCCC2)nc2ccccc12)c1ccccc1 (stereo unspecified) | 9.31 µM
O=C(Oc1c(Cl)cc(Cl)c2cccnc12)c1ccco1 | 11.6 µM
Clc1ccc2c(c1)c1cc(Cl)ccc1n2CN1CCOCC1 | 27.2 µM

Structure (SMILES) | EC50
COc1ccc(Nc2nc(-c3ccccc3)nc3ccccc23)cc1S(=O)(=O)N1CCOCC1 | 39 µM
COc1cc([N+](=O)[O-])cc(/C=N/NC(=O)C(C)Nc2cccc(C)c2)c1O (stereo unspecified) | 27 µM
O=C(NC(=S)NNC(=O)c1cccs1)c1ccco1 | 16.2 µM
O=C(NCCCN1CCOCC1)c1sc2cc(Cl)ccc2c1Cl | 35.8 µM
O=C(/C=C/c1ccccc1)c1cc(Br)ccc(=O)c1O | 10.5 µM
C#CCOCCOCCOCCNc1nc(N2CCN(C(=O)[C@H]([C@@H](C)CC)n3cc([C@@H](N)Cc4ccc(O)cc4)nn3)CC2)nc(N2CCN(C(=O)[C@H](Cc3cc4ccccc4[nH]3)n3cc([C@@H](N)CC(C)C)nn3)CC2)n1 | < 0.1 µM
COc1cccc(F)c1C(C[N+](=O)[O-])c1c(N)n(C)c(=O)n(C)c1=O (stereo unspecified) | 6.05 µM
COc1ccc(N2CC(C(=O)N/N=C/c3cc([N+](=O)[O-])ccc3O)CC2=O)cc1 (stereo unspecified) | 17.7 µM
O=S(=O)(Nc1c(S(=O)(=O)c2ccccc2)c2nc3ccccc3nc2n1C1CCCCC1)c1ccccc1 | 12.3 µM
[O-][n+]1c2c(c3c4non(O)c4ccc31)CCCC2 | 47.7 µM
C=CCN(c1ccccc1)S(=O)(=O)c1cccc2cccnc12 | 49.4 µM
CC(NCc1ccc(-c2ccccc2)cc1)C(O)c1ccccc1 (stereo unspecified) | 5.49 µM
CNCCCCOc1ccc(C(C)(C)C)cc1Cl | 21.8 µM
CCOC(=O)CNC(=O)Cn1c(C)cc2ccccc2c1=O | 40.9 µM
NC1=NC[C@H](Cc2ccccc2)N1CCCCC1CCCCC1 | 3.5 µM
COc1ccc(N2C3=C(CC4=C2CC(C)(C)CC4=O)C(=O)CC(C)(C)C3)cc1 | 7.53 µM
CC1CCC(C(C)C)C(OC(=O)Cn2c(-c3ccc(Cl)cc3)[n+](C)c3ccccc32)C1 (stereo unspecified) | 2.22 µM
COc1ccc(NC(=O)CN(C)S(=O)(=O)c2ccc(Cl)cc2)cc1Cl | < 0.1 µM
CCCCCCCCCCn1c2c(c(=N)c3c1CCC3)CCC2 | 0.21 µM
CCCCCCCCCCCCCCCC[N+](C)(C)C | 1.43 µM
CCN1CCN(c2cc(C)c3cc(NC(=S)N4CCN(c5ccccc5F)CC4)ccc3n2)CC1 | 17.9 µM
O=C(C[n+]1cc(Br)cc2ccccc21)c1ccc(Cl)cc1 | 44 µM
CCCCCCCCn1ccc(=N)cc1 | 5.47 µM
CNCCCN1c2ccccc2CCc2ccccc21 | 40.4 µM

Structure (SMILES) | EC50
Cc1ccc2nsnc2c1S(=O)(=O)NCc1ccc2c(c1)OCO2 | < 0.1 µM
O=c1c2ccccc2nc(-c2cccc(Cl)c2)n1O | 18.2 µM
CCN(CC)CCNc1nc(-c2ccc(OC)cc2)c(-c2ccc(OC)cc2)s1 | 22.3 µM
O=C(NNc1nc2ccc(F)cc2s1)c1cccc(F)c1 | 8.07 µM
O=[N+]([O-])c1cccc2c(N3CCCC3)ccnc12 | 9.77 µM
COc1ccc2nc(Nc3ccccc3)sc2c1 | < 0.1 µM
CN(C)CC/C=C1\c2ccccc2Sc2cc(F)c(Cl)cc21 | 10.8 µM
Cc1nonc1C(=O)N/N=C/c1ccc(O)cc1O | 8.05 µM
Cc1ccccc1Nc1cc(C)c2c(O)cccc2n1 | 5.03 µM
COc1ccc(/C=C/c2cc(-c3ccc(C)cc3)o[n+]2C)cc1 | 1.27 µM
Oc1ccc(CN2CCN(Cc3ccccc3)CC2)c2cccnc12 | 9.96 µM
OCCN1CCN(CCCN2c3ccccc3Sc3ccc(C(F)(F)F)cc32)CC1 | 12.7 µM
Cc1ccc(C(=O)N/N=C\c2ccc([N+](=O)[O-])s2)cn1 | 13.2 µM
NC(=NCCCCCCN=C(N)/N=C(\N)Nc1ccc(Cl)cc1)/N=C(\N)Nc1ccc(Cl)cc1 | 3.5 µM and 1.62 µM and 3.91 µM
Fc1ccc([C@@H]2CCNC[C@H]2COc2ccc3c(c2)OCO3)cc1 | 7.59 µM
CCCCCCCCCn1c2c(c(=N)c3c1CCC3)CCC2 | 0.52 µM
CCOc1ccc(Nc2c3ccccc3nc3ccccc23)cc1 | 2.49 µM
CN1CCN(c2ccc(NC(=O)CSc3ccccc3)cc2F)CC1 | < 0.1 µM
N#C/C(=C\c1ccc(O)c(O)c1)C(=O)c1ccc(O)c(O)c1 | 39.1 µM
O=C(N/N=C/c1cc(Br)cc(Br)c1O)c1ccncc1 | 4.01 µM
CN(C)CCCNc1c2ccccc2nc2ccccc12 | 3.46 µM
CCCCCC[N+](C)(C)CC/C=C1/c2ccccc2Sc2ccc(Cl)cc21 | 5.39 µM
N=c1n(CC(=O)c2ccc(Br)s2)c2ccccc2n1Cc1ccccc1 | 4.4 µM
O=C(CNC(=O)c1ccccc1)N/N=C/c1ccc([N+](=O)[O-])s1 | 16.9 µM

Structure (SMILES) | EC50
Cc1ccc(-c2ccccc2NC(=O)CS(=O)CC(=O)Nc2ccc(C)c(Cl)c2)o1 (stereo unspecified) | 32.2 µM
Clc1ccc2[nH]c3c(c2c1)CCc1cn[nH]c1-3 | 31.3 µM
O=C(C[n+]1cccc(CNC(=O)c2ccc(OC(F)F)cc2)c1)Nc1ccc(SC(F)F)cc1 | 7.22 µM
N/C(=N\N=C/c1ccc(F)cc1)N/N=C\c1ccc(F)cc1 | 19 µM
c1ccc(CNc2nc(-c3ccccn3)nc3ccccc23)cc1 | 1.72 µM
Cc1cccc(OCC(O)Cn2c(=N)n(CCN3CCCCC3)c3ccccc32)c1 (stereo unspecified) | 16.1 µM
O=C(CCc1ccccc1)NNC(=S)NC(=O)c1ccccc1 | 10.9 µM
O=C(N/N=C\c1c[nH]c2ccccc12)c1ccc(O)cc1 | < 0.1 µM
CSc1nnc(-c2cccc(NC(=S)NN)c2)o1 | < 0.1 µM
Cc1ccc(S(=O)(=O)NC(C)(C)CSc2nnc(N)s2)cc1 | < 0.1 µM
CNCCCC1c2ccccc2C=Cc2ccccc21 | 24.5 µM
NC(N)=N/N=C/c1ccc(OCc2ccc(Cl)cc2Cl)cc1 | 5.86 µM
Nc1ncn(C2O[C@H](CO)[C@@H](O)[C@H]2O)c(=O)n1 (stereo partly specified) | 14 µM
Oc1c(I)cc(Cl)c2cccnc12 | 14.7 µM
Cc1cc(=O)[nH]c(-n2nc(C)cc2C)n1 | 27.8 µM
CCOC(=O)c1c(CSC(=N)N)n(C)c2cc(Br)c(OC(C)=O)cc12 | 16.9 µM
O=C(Nc1c(Cl)ccc2nsnc12)c1ccc([N+](=O)[O-])o1 | 3.84 µM
Cc1nc2c(=O)n(C)c(=O)nc-2n(C)n1 | 2.17 µM
CCCCCCCNC(=O)C1(CC2CC(c3cccc(Br)c3)=NO2)CCNCC1 (stereo unspecified) | 7 µM
O=C(NC(=S)NNC(=O)c1cnccn1)c1ccc(F)cc1 | 5.51 µM
NC1=NC[C@@H](Cc2ccc(O)cc2)N1CCc1cc(C(F)(F)F)cc(C(F)(F)F)c1 | 32.3 µM
COc1cc(CNC2CCCC2)cc(Cl)c1OCc1ccccc1Cl | 14.4 µM
CSc1ccc2c(c1)C(N1CCN(C)CC1)Cc1ccccc1S2 (stereo unspecified) | 9.33 µM
O=[N+]([O-])c1cc(O)c2ncccc2c1 | 5.78 µM

Structure (SMILES) | EC50
CCc1ccc(Nc2n[n+](-c3ccccc3)c(-c3c(Cl)cccc3Cl)s2)cc1 | 3.75 µM
CCCCCCCCC[n+]1cccc2c3ccccc3ccc21 | 0.82 µM
c1cc2c(cc1C1CCCCC1)c1c3n2CCN=C3CCC1 | 11.9 µM
O=C(C[n+]1cc(-c2ccccc2)n2c1CCC2)Nc1nc(-c2ccc(F)cc2)cs1 | 32.4 µM
O=C(Nc1ccc(-c2nc3ccccc3[nH]2)cc1)c1ccco1 | 10.6 µM
Cc1ccccc1S(=O)(=O)NNC(=O)C(=O)NNc1ccccn1 | 24.2 µM
CCCCCCCCCCOC(=O)Cn1c(COc2ccccc2C)[n+](C)c2ccccc21 | 1.29 µM
COc1cccc(/C=N/NC(=O)CNC(=O)CCc2ccccc2)c1O | 21.7 µM
Cc1nnc(N/N=C/c2ccccn2)[nH]c1=O | 1.62 µM
CCc1ccc(CNCc2ccc(OCC(O)CN(C)Cc3ccccc3)cc2)nc1 (stereo unspecified) | 23 µM
CCOc1ccc(-c2c[n+]3c(n2-c2ccccc2)CCCCC3)cc1 | 25.6 µM
CCCCC(CC)CN=C(N)NC(N)=NCCCCCCN=C(N)NC(N)=NCC(CC)CCCC (stereo unspecified) | 0.83 µM
COc1ccc(Nc2cc(C)nc(NCc3ccccc3)n2)cc1 | 4.79 µM
Cc1ccc2c(c1)N/C(=C(\C=C(/Cl)[N+](=O)[O-])[N+](=O)[O-])N2 | 26.8 µM
NC(=O)c1ccsc1NC(=O)c1ccc2c(c1)CCCC2 | 40.4 µM
OC(CNCCc1ccc(C(F)(F)F)cc1)COC(c1ccccc1)c1ccccc1 (stereo unspecified) | 15.9 µM
Cc1ccc(-c2c[n+](Cc3ccc(Cl)cc3)c3n2CCC3)cc1 | 10.1 µM
CC(C(=O)c1ccc(-c2ccccc2)cc1)[n+]1cccc(NC(=O)c2ccccc2)c1 (stereo unspecified) | 17.7 µM
Cc1cc(C2CCCCC2)n(O)c(=O)c1 | 0.63 µM
CC1CCN(CC(CS(=O)(=O)c2ccc([N+](=O)[O-])cc2)N2CCC(C)CC2)CC1 (stereo unspecified) | 14.6 µM
